Assay results taken from US10214512B2, “Factor XIA inhibitors” (MERCK SHARP & DOHME CORP., priority 2015, dated 2019).
pKi: −log10 of the molar value.

Target: purified human Factor XIa (Homo sapiens (Human), UniProt P03951)
Assay: Factor XIa Assay
Type: biochemical
Details: purified human Factor XIa 40 pM; substrate Z-Gly-Pro-Arg-AFC 100 μM; 50 mM HEPES pH 7.4; read-out: Human FXIa Ki
Experimental: The effectiveness of a compound of the present invention as an inhibitor of Coagulation Factor XIa can be determined using a relevant purified serine protease, and an appropriate synthetic substrate. The rate of hydrolysis of the chromogenic or fluorogenic substrate by the relevant serine protease was measured both in the absence and presence of compounds of the present invention. Assays were conducted at rt or at 37° C. […] A decrease in the rate of fluorescence change in the presence of inhibitor is indicative of enzyme inhibition. Such methods are known to one skilled in the art. The results of this assay are expressed as the inhibitory constant, Ki.
Factor XIa determinations were made in 50 mM HEPES buffer at pH 7.4 containing 150 mM NaCl, 5 mM CaCl2, and 0.1% PEG 8000 (polyethylene glycol; JT Baker or Fisher Scientific). Determinations were made using purified human Factor XIa at a final concentration of 40 pM (Sekisui Diagnostics) and he synthetic substrate, Z-Gly-Pro-Arg-AFC, TFA salt (Sigma #C0980) at a concentration of 100 μM.
Times required to achieve equilibration between enzyme and inhibitor were determined in control experiments. Initial velocities of product formation in the absence (Vo) or presence of inhibitor (Vi) were measured. Assuming competitive inhibition, and that unity is negligible compared Km/[S], [I]/e, and [I]/e (where [S], [I], and e respectively represent the total concentrations, of substrate, inhibitor and enzyme), the equilibrium constant (Ki) for dissociation of the inhibitor from the enzyme can be obtained from the dependence of Vo/Vi on [I] shown in the following equation.

Chain of purified human Factor XIa (P03951 388-625): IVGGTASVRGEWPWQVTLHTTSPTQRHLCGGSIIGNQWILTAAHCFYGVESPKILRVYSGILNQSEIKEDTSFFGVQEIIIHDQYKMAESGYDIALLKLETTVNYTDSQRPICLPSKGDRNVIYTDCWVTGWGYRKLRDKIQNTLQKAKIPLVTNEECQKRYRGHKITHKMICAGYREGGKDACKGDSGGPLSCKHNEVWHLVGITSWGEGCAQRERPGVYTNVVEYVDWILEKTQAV
Chain of purified human Factor XIa (P03951 19-387 partner): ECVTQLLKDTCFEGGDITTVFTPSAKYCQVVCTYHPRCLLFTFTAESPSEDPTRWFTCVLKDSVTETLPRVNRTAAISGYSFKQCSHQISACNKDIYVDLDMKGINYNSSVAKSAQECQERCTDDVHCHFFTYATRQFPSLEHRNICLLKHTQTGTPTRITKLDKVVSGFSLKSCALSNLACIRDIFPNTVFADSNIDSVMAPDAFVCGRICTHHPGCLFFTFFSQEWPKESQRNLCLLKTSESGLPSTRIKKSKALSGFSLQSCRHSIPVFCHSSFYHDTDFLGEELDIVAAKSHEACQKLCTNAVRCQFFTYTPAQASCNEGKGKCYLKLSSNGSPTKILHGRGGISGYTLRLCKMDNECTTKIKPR

pKi	SMILES
6.80	COC(=O)Nc1cc(F)c2c(c1)NC(=O)C(C)CCCC(c1ccc(-c3c(F)ccc(Cl)c3F)c[n+]1[O-])c1cccc-2c1 (single isomer, unassigned) [Example 85-d, 5-(3-Chloro-2,6-difluorophenyl)-2-(2^6-fluoro-2^4-((methoxycarbonyl)amino)-5-methyl-4-oxo-3-aza-1(1,3),2(1,2)-dibenzenacyclononaphane-9-yl)pyridine 1-oxide]
< 6.06	COC(=O)Nc1ccc2c(c1)NC(=O)CCCCC(c1ccc(-c3c(F)ccc(Cl)c3F)cn1)c1cc(F)cc-2c1 (stereo not drawn) [Example 53, methyl (9-(5-(3-chloro-2,6-difluorophenyl)pyridin-2-yl)-1^5-fluoro-4-oxo-3-aza-1(1,3),2(1,2)-dibenzenacyclononaphane-2^4-yl)carbamate]
6.74	COC(=O)Nc1ccc2c(c1)NC(=O)CCCCC(c1ccc(-c3c(F)ccc(Cl)c3F)c[n+]1[O-])c1ccc(F)c-2n1 (stereo not drawn) [Example 74, 5-(3-chloro-2,6-difluorophenyl)-2-(1^3-fluoro-2^4-((methoxycarbonyl)amino)-4-oxo-3-aza-1(2,6)-pyridina-2(1,2)-benzenacyclononaphane-9-yl)pyridine 1-oxide]
7.08	O=C1CCCCC(c2ccc(-c3cc(Cl)ccc3-n3cnnn3)cn2)c2nc(c[nH]2)-c2cc(F)ccc2N1 (single isomer, unassigned) [Example 10-a, (Z)-9-(5-(5-chloro-2-(1H-tetrazol-1-yl)phenyl)pyridin-2-yl)-2^5-fluoro-1^1H -3-aza-1(4,2)-imidazola-2(1,2)-benzenacyclononaphan-4-one]
< 6.06	COC(=O)Nc1cc(F)c2c(c1)NC(=O)C(C)CCCC(c1ccc(-c3c(F)ccc(Cl)c3F)c[n+]1[O-])c1cccc-2c1 (single isomer, unassigned) [Example 85-a, 5-(3-Chloro-2,6-difluorophenyl)-2-(2^6-fluoro-2^4-((methoxycarbonyl)amino)-5-methyl-4-oxo-3-aza-1(1,3),2(1,2)-dibenzenacyclononaphane-9-yl)pyridine 1-oxide]
7.65	Cn1cc2c(n1)-c1cccc(c1)C(c1ccc(-c3c(F)ccc(Cl)c3F)c[n+]1[O-])CCCCC(=O)N2 (stereo not drawn) [Example 163, 5-(3-chloro-2,6-difluorophenyl)-2-(1^1-methyl-8-oxo-1^1H-9-aza-1(3,4) -pyrazola-2(1,3)-benzenacyclononaphane-3-Yl)pyridine 1-oxide]
6.68	COC(=O)Nc1ccc2c(c1)NC(=O)C(C)CCCC(c1ccc(-c3c(F)ccc(Cl)c3F)c[n+]1[O-])c1cccc-2c1 (single isomer, unassigned) [Example 50-d, 5-(3-chloro-2,6-difluorophenyl)-2-(2^4-((methoxycarbonyl)amino)-5-methyl-4-oxo-3-aza-1(1,3),2(1,2)-dinenzenacyclononaphane-9-yl)pyridine 1-oxide]
< 6.06	COC(=O)Nc1ccc2c(c1)NC(=O)CCCCC(c1ccc(-c3c(F)ccc(Cl)c3F)cn1)c1cc(F)c(F)c-2c1 (stereo not drawn) [Example 55, methyl (9-(5-(3-chloro-2,6-difluorophenyl)pyridin-2-yl)-1^5,1^6-difluoro-4-oxo-3-aza-1(1,3),2(1,2)-dibenzenacyclononaphane-2^4-yl)carbamate]
7.32	O=C(C1CCCCC(c2ccc(-c3cc(Cl)ccc3-n3cnnn3)c[n+]2[O-])c2cccc(c2)-c2cc(F)ccc2N1)N1CCCC1 (single isomer, unassigned) [Example 79-a, 5-(5-Chloro-2-(1H-tetrazol-1-yl)phenyl)-2-(2^5-fluoro-4-(pyrrolidine-1-carbonyl)-3-aza-1(1,3),2(1,2)-dibenzenacyclononaphane-9-yl)pyridine 1-oxide]
7.92	C[C@H]1CCC[C@H](c2ccc(-c3ccccc3-n3cc(Cl)nn3)c[n+]2[O-])c2cccc(c2)-c2c(cnn2C(F)F)NC1=O (single isomer, unassigned) [Example 172-b]
9.77	CCOC(=O)Nc1ccc2c(c1)NC(=O)CCCC[C@H](c1ccc(-c3c(F)ccc(Cl)c3F)c[n+]1[O-])c1nc-2c(C)[nH]1 (single isomer, unassigned) [Example 134]
6.68	COC(=O)Nc1ccc2c(c1)NC(=O)CCCCC(c1ccc(-c3c(-n4cc(C(F)(F)F)cn4)ccc(Cl)c3F)c[n+]1[O-])c1nc-2c[nH]1 (stereo not drawn) [Example 116]
6.08	COC(=O)Nc1ccc2c(c1)NC(=O)CCCCC(c1ccc(-c3c(F)ccc(Cl)c3F)cn1)c1ccc(F)c-2c1 (stereo not drawn) [Example 54, methyl (9-(5-(3-chloro-2,6-difluorophenyl)pyridin-2-yl)-1^6-fluoro-4-oxo-3-aza-1(1,3),2(1,2)-dibenzenacyclononaphane-2^4-yl)carbamate]
8.05	O=C1CCCCC(c2ccc(-c3c(-n4cnnn4)ccc(Cl)c3F)cn2)c2cc(ncc2F)-c2cc(F)ccc2N1 (stereo not drawn) [Example 59, 9-(5-(3-chloro-2-fluoro-6-(1h-tetrazol-1-yl)phenyl)pyridin-2-yl)-1^5,2^5-difluoro-3-aza-1(2,4)-pyridina-2(1,2)-benzenacyclononaphan-4-one]
< 6.06	Cn1ncc2c1-c1cccc(c1)C(c1ccc(-c3c(F)ccc(Cl)c3F)c[n+]1[O-])CCCCC(=O)N2 (stereo not drawn) [Example 164, 5-(3-chloro-2,6-difluorophenyl)-2-(1^1-methyl-8-oxo-1H-9-aza-1(5,4) -pyrazola-2(1,3)-benzenacyclononaphane-3-Yl)pyridine 1-oxide]
9.26	COC(=O)Nc1ccc2c(c1)NC(=O)CCCC[C@H](c1ccc(-c3c(F)ccc(Cl)c3F)c[n+]1[O-])c1cc(F)cc-2c1 (single isomer, unassigned) [Example 67]
7.48	COC(=O)Nc1ccc2c(c1)NC(=O)CCCCC(c1ccc(-c3c(F)ccc(Cl)c3F)cn1)c1cc-2ccn1 (stereo not drawn) [Example 62, methyl (9-(5-(3-chloro-2,6-difluorophenyl)pyridin-2-yl)-4-oxo-3-aza-1(4,2)-pyridina-2(1,2)-benzenacyclononaphane-2^4-yl)carbamate]
9.40	COC(=O)Nc1ccc2c(c1)NC(=O)C[C@H]1C[C@@H]1C[C@H](c1ccc(-c3c(F)ccc(Cl)c3F)c[n+]1[O-])c1nc-2c(C)[nH]1 (single isomer, unassigned) [Example 154]
6.30	O=C1CCCC[C@@H](c2ccc(-c3cc(Cl)ccc3-n3cnnn3)cn2)c2cccc(c2)-c2cc(F)ccc2N1 [Example 1-b, (R)-9-(5-(5-Chloro-2-(1H-tetrazol-1-yl)phenyl)pyridin-2-yl)-2^5-fluoro-3-aza-1(1,3),2(1,2)-dibenzenacyclononaphan-4-one]
7.81	O=C1CCCCC(c2ccc(-c3c(F)ccc(Cl)c3F)cn2)c2cccc(c2)-c2cc3c(O)cc(=O)[nH]c3cc2N1 (stereo not drawn) [Example 49, 3-(5-(3-chloro-2,6-difluorophenyl)pyridin-2-yl)-1^4-hydroxy-1^1,1^2-dihydro-9-aza-1 (6,7)-quinolina-2(1,3)-benzenacyclononaphane-1^2,8-dione]
6.23	COC(=O)Nc1ccc2c(c1)NC(=O)CCCCC(c1ccc(-c3c(F)ccc(Cl)c3F)cn1)c1cccc-2c1 (stereo not drawn) [Example 12, methyl (9-(5-(3-chloro-2,6-difluorophenyl)pyridin-2-yl)-4-oxo-3-aza-1(1,3),2(1,2)-dibenzenacyclononaphane-2^4-yl)carbamate]
6.71	C[C@@H]1CCC[C@@H](c2ccc(-c3cc(Cl)ccc3-n3cc(Cl)nn3)c[n+]2[O-])c2cccc(c2)-c2c(cnn2C(F)F)NC1=O (single isomer, unassigned) [Example 166-b]
7.96	O=C1CCCCC(c2ccc(-c3c(-n4cc(C(=O)O)nn4)ccc(Cl)c3F)cn2)c2cc(ncc2F)-c2cc(F)ccc2N1 (single isomer, unassigned) [Example 91-a]
7.73	COC(=O)Nc1ccc2c(c1)NC(=O)[C@H](C)CCC[C@@H](c1ccc(-c3c(F)cccc3F)c[n+]1[O-])c1nc-2c(C)[nH]1 (single isomer, unassigned) [Example 143-d]
6.79	COC(=O)Nc1ccc2c(c1)NC(=O)CCCCC(c1ccc(-c3c(F)ccc(Cl)c3F)cn1)c1cc-2ncn1 (stereo not drawn) [Example 64, methyl (9-(5-(3-chloro-2,6-difluorophenyl)pyridin-2-yl)-4-oxo-3-aza-1(4,6)-pyrimidina-2(1,2)-benzenacyclononaphane-2^4-yl)carbamate]
7.34	O=C1CCCCC(O)(c2ccc(-c3cc(Cl)ccc3-n3cnnn3)c[n+]2[O-])c2nc(c[nH]2)-c2cc(F)ccc2N1 (single isomer, unassigned) [Example 107-a, (Z)-5-(5-Chloro-2-(1H-tetrazol-1-yl)phenyl)-2-(2^5-fluoro-9-hydroxy-4-oxo-1^1H-3-aza-1(4,2)-imidazola-2(1,2)-benzenacyclononaphane-9-yl)pyridine 1-oxide]
7.94	COC(=O)Nc1ccc2c(c1)NC(=O)C[C@H]1C[C@@H]1C[C@H](c1ccc(-c3c(F)cccc3F)c[n+]1[O-])c1nc-2c(C)[nH]1 (single isomer, unassigned) [Example 155]
